Measured values published in patent US8742106B2 (Novartis AG, priority 2009, dated 2014).
pKi: −log10 of the molar value.

Tests used:
human orexin 2 receptors = human orexin 2 receptors (Homo sapiens (Human), UniProt O43614); experiment: Calcium Accumulation in Cells (FLIPR), antagonism of orexin A; type: cell-based; settings: for inhibition at 10 µM: measured at a concentration of 10 μM of compound, read-out: FLIPR hOx2R % inhibition value; for pKi: antagonism of orexin A, Cheng-Prusoff corrected, read-out: FLIPR hOx2R Ki
Method: (§1) Calcium Accumulation in Cells (FLIPR):
Cells expressing human orexin 1 or human orexin 2 receptors, were seeded at 8,000 cells/well in 384 well black-walled clear bottom, poly-D-lysine coated plates.
On the day of the experiment, the cells seeded in black plates were treated with assay buffer containing the Ca^2+ sensitive fluorescent dye Fluo4-AM (2 μM), and probenecid (0.1 mM). After 1 h plates were washed twice with, and resuspended in, assay buffer containing probenecid (0.1 mM) using a multi plate washer. […] Fluorescence measurements were then continued every 1 S for 120 S followed by every 4 S for 240 S.
(§2) The measurements were typically made in two sequences:
(§3) In the first round, compounds of formula (I) or (I′) were tested alone, to detect possible agonist activity. Compounds of formula I or I′ were tested usually in a concentration range from 10^−9 M to 10^−5 M.
(§4) In the second round, performed one hour later (to allow for equilibration), Orexin A was tested either in the absence (calibration curves, Orexin A agonist controls) or in the presence of compounds of formula (I) or (I′) to determine antagonism.

human orexin 1 receptors = human orexin 1 receptors (Homo sapiens (Human), UniProt O43613); experiment: as above; type: cell-based; settings: for inhibition at 10 µM: measured at a concentration of 10 μM of compound, read-out: FLIPR hOx1R % inhibition value; for pKi: antagonism of orexin A, Cheng-Prusoff corrected, read-out: FLIPR hOx1R Ki
Method: as §1
Cells expressing human orexin 1 or human orexin 2 receptors, were seeded at 8,000 cells/well in 384 well black-walled clear bottom, poly-D-lysine coated plates. After 24 h, the medium was removed and cells were washed once with phosphate buffered saline and serum-deprived overnight in assay buffer (130 mM NaCl, 5.4 mM KCl, 1.8 mM CaCl2, 0.8 mM MgSO4, 0.9 mM NaH2PO4, 25 mM glucose, 20 mM HEPES, pH 7.4) containing bovine serum albumin (1% w/v).
On the day of the experiment, the cells seeded in black plates were treated with assay buffer containing the Ca^2+ sensitive fluorescent dye Fluo4-AM (2 μM), and probenecid (0.1 mM). After 1 h plates were washed twice with, and resuspended in, assay buffer containing probenecid (0.1 mM) using a multi plate washer. The plates were placed into a FLIPR II (Fluorometric Imaging Plate Reader, Molecular Devices, Sunnyvale, Calif., USA) and baseline fluorescence (fluorescence light units, FLU) was measured (5 measurements, 2 S each; laser excitation 488 nm at 0.6-1 W, CCD camera exposure 0.4 s) before addition of buffer alone (basal) or containing test compounds (either compound of formula (I) or (I′) alone, agonist alone or agonist in the presence of various concentrations of compounds of formula (I) or (I′)). Fluorescence measurements were then continued every 1 S for 120 S followed by every 4 S for 240 S.
as §2, §3, §4

human orexin 2 receptors, sequence (O43614 whole entry): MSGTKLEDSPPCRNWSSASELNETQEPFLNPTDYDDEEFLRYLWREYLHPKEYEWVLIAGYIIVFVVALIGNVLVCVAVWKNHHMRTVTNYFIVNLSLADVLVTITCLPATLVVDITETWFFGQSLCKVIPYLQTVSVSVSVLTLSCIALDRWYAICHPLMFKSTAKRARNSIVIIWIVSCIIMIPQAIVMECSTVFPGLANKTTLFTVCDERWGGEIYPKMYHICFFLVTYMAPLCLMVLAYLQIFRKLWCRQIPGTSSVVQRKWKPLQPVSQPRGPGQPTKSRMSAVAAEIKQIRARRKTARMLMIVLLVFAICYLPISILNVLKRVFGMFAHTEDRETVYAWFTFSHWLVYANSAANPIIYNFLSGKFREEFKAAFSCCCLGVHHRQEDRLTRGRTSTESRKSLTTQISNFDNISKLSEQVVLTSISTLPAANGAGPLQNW
human orexin 1 receptors, sequence (O43613 whole entry): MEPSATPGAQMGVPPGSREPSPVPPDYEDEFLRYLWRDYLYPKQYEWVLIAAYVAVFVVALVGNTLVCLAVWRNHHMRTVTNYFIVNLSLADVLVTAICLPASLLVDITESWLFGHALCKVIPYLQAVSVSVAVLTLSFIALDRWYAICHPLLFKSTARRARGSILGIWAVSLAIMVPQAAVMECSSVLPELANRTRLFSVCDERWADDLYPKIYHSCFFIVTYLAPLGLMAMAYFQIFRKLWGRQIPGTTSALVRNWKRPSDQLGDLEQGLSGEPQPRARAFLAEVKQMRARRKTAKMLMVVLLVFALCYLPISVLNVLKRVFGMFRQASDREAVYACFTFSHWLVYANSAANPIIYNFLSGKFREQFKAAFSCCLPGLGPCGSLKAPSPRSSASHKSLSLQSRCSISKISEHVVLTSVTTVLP

| SMILES | inhibition at 10 µM (human orexin 2 receptors) [%] | inhibition at 10 µM (human orexin 1 receptors) [%] | pKi (human orexin 2 receptors) | pKi (human orexin 1 receptors) |
| --- | --- | --- | --- | --- |
| Cn1nc(-c2ccccc2)c2c(C(F)(F)F)cc(OCC(=O)NC3CCC3)nc21 [Example 1.54, N-cyclobutyl-2-(1-methyl-3-phenyl-4-(trifluoromethyl)-1H-pyrazolo[3,4-b]pyridin-6-yloxy)acetamide] | 42 | 25 |  |  |
| CCCNC(=O)COc1cc(C(F)(F)F)c2c(-c3ccccc3)nn(C)c2n1 [Example 1.55, 2-(1-methyl-3-phenyl-4-(trifluoromethyl)-1H-pyrazolo[3,4-b]pyridin-6-yloxy)-N-propylacetamide] |  | 23 | 6.12 |  |
| Cn1nc(-c2ccccc2)c2c(C(F)(F)F)cc(OCC(=O)NC3CCCc4ccccc43)nc21 (centres unmarked) [Example 1.56, 2-(1-methyl-3-phenyl-4-(trifluoromethyl)-1H-pyrazolo[3,4-b]pyridin-6-yloxy)-N-(1,2,3,4-tetrahydronaphthalen-1-yl)acetamide] |  |  | 6.78 | 6.42 |
| C[C@H](NC(=O)COc1cc(C(F)(F)F)c2c(-c3cccc(Cl)c3)nn(C)c2n1)c1ccccc1 [Example 1.57, (S)-2-(3-(3-chlorophenyl)-1-methyl-4-(trifluoromethyl)-1H-pyrazolo[3,4-b]pyridin-6-yloxy)-N-(1-phenylethyl)acetamide] |  |  | 6.97 | 7.18 |
| COc1ccc([C@@H](C)NC(=O)COc2cc(C(F)(F)F)c3c(-c4ccccc4)nn(C)c3n2)cc1 [Example 1.59, (R)-N-(1-(4-methoxyphenyl)ethyl)-2-(1-methyl-3-phenyl-4-(trifluoromethyl)-1H-pyrazolo[3,4-b]pyridin-6-yloxy)acetamide] |  |  | 6.02 | 5.64 |
| Cc1cc(OCC(=O)NC(C)c2ccncc2)nc2c1c(-c1ccccc1)nn2C (centres unmarked) [Example 1.63, 2-(1,4-dimethyl-3-phenyl-1H-pyrazolo[3,4-b]pyridin-6-yloxy)-N-(1-(pyridin-4-yl)ethyl)acetamide] | 34 | 27 |  |  |
| Cc1cc(OCC(=O)NC(C)c2cccnc2)nc2c1c(-c1ccccc1)nn2C (centres unmarked) [Example 1.64, 2-(1,4-dimethyl-3-phenyl-1H-pyrazolo[3,4-b]pyridin-6-yloxy)-N-(1-(pyridin-3-yl)ethyl)acetamide] | 39 | 26 |  |  |
| Cc1cc(OCC(=O)NC(C)c2ccccn2)nc2c1c(-c1ccccc1)nn2C (centres unmarked) [Example 1.65, 2-(1,4-dimethyl-3-phenyl-1H-pyrazolo[3,4-b]pyridin-6-yloxy)-N-(1-(pyridin-2-yl)ethyl)acetamide] | 30 | 26 |  |  |
| Cc1cccc(CNC(=O)COc2cc(C(F)(F)F)c3c(-c4ccccc4)nn(C)c3n2)c1 [Example 1.66, 2-(1-methyl-3-phenyl-4-(trifluoromethyl)-1H-pyrazolo[3,4-b]pyridin-6-yloxy)-N-(3-methylbenzyl)acetamide] | 41 | 23 |  |  |
| CC(C)CCNC(=O)COc1cc(C(F)(F)F)c2c(-c3ccccc3)nn(C)c2n1 [Example 1.68, N-isopentyl-2-(1-methyl-3-phenyl-4-(trifluoromethyl)-1H-pyrazolo[3,4-b]pyridin-6-yloxy)acetamide] | 16 | < 10 |  |  |
| Cc1cc(OCC(=O)N[C@@H](C)c2ccccc2)nc2c1c(C1CC1)nn2C [Example 1.69, (S)-2-(3-cyclopropyl-1,4-dimethyl-1H-pyrazolo[3,4-b]pyridin-6-yloxy)-N-(1-phenylethyl)acetamide] |  |  | 6.03 | 6.00 |
| Cc1nn(C)c(C)c1C(C)NC(=O)COc1cc(C)c2c(C3CC3)nn(C)c2n1 (centres unmarked) [Example 1.72, 2-(3-cyclopropyl-1,4-dimethyl-1H-pyrazolo[3,4-b]pyridin-6-yloxy)-N-(1-(1,3,5-trimethyl-1H-pyrazol-4-yl)ethyl)acetamide] |  |  | 5.91 | 5.67 |
| Cc1cc(OCC(=O)N[C@H]2CCc3ccccc32)nc2c1c(C1CC1)nn2C [Example 1.75, (S)-2-(3-cyclopropyl-1,4-dimethyl-1H-pyrazolo[3,4-b]pyridin-6-yloxy)-N-(2,3-dihydro-1H-inden-1-yl)acetamide] |  | 27 | 6.09 |  |
| Cc1n[nH]c(C)c1C(C)NC(=O)COc1cc(C)c2c(C3CC3)nn(C)c2n1 (centres unmarked) [Example 1.76, 2-(3-cyclopropyl-1,4-dimethyl-1H-pyrazolo[3,4-b]pyridin-6-yloxy)-N-(1-(3,5-dimethyl-1H-pyrazol-4-yl)ethyl)acetamide] |  |  | 6.22 | 6.40 |
| C[C@H](NC(=O)CNc1cc(C(F)(F)F)c2c(-c3ccccc3)nn(C)c2n1)c1ccccc1 [Example 3.1, (S)-2-(1-methyl-3-phenyl-4-(trifluoromethyl)-1H-pyrazolo[3,4-b]pyridin-6-ylamino)-N-(1-phenylethyl)acetamide] |  |  | 5.95 | 6.45 |
| Cc1ccc([C@H](C)NC(=O)COc2cc(C)c3c(-c4ccnn4C)nn(C)c3n2)cc1 [Example 4.3, (S)-2-(1,4-dimethyl-3-(1-methyl-1H-pyrazol-5-yl)-1H-pyrazolo[3,4-b]pyridin-6-yloxy)-N-(1-p-tolylethyl)acetamide] |  |  | 5.65 | 5.57 |
| Cc1ccc([C@H](C)NC(=O)COc2cc(C)c3c(-c4cnc(C)n4C)nn(C)c3n2)cc1 [Example 4.4, (S)-2-(3-(1,2-dimethyl-1H-imidazol-5-yl)-1,4-dimethyl-1H-pyrazolo[3,4-b]pyridin-6-yloxy)-N-(1-p-tolylethyl)acetamide] |  |  | 6.14 | 6.10 |
| Cc1ccc([C@H](C)NC(=O)COc2cc(C)c3c(-c4cc(C)nn4C)nn(C)c3n2)cc1 [Example 4.5, (S)-2-(3-(1,3-dimethyl-1H-pyrazol-5-yl)-1,4-dimethyl-1H-pyrazolo[3,4-b]pyridin-6-yloxy)-N-(1-p-tolylethyl)acetamide] |  |  | 6.03 | 6.17 |
| Cc1ccc([C@H](C)NC(=O)COc2cc(C)c3c(-c4cncn4C)nn(C)c3n2)cc1 [Example 4.11, (S)-2-(1,4-dimethyl-3-(1-methyl-1H-imidazol-5-yl)-1H-pyrazolo[3,4-b]pyridin-6-yloxy)-N-(1-p-tolylethyl)acetamide] |  |  | 5.79 | 5.36 |
| COc1cncc(-c2nn(C)c3nc(OCC(=O)N[C@@H](C)c4ccc(C)cc4)cc(C)c23)n1 [Example 4.12, (S)-2-(3-(6-methoxypyrazin-2-yl)-1,4-dimethyl-1H-pyrazolo[3,4-b]pyridin-6-yloxy)-N-(1-p-tolylethyl)acetamide] |  |  | 6.69 | 6.62 |
| Cc1ccc([C@H](C)NC(=O)COc2cc(C)c3c(-c4cn(C)cn4)nn(C)c3n2)cc1 [Example 4.13, (S)-2-(1,4-dimethyl-3-(1-methyl-1H-imidazol-4-yl)-1H-pyrazolo[3,4-b]pyridin-6-yloxy)-N-(1-p-tolylethyl)acetamide] |  |  | 6.20 | 5.94 |
| Cc1nn(C)c(C)c1C(C)NC(=O)COc1cc(C(F)F)c2c(C3CC3)nn(C)c2n1 (centres unmarked) [Example 6.9, 2-(3-cyclopropyl-4-(difluoromethyl)-1-methyl-1H-pyrazolo[3,4-b]pyridin-6-yloxy)-N-(1-(1,3,5-trimethyl-1H-pyrazol-4-yl)ethyl)acetamide] |  |  | 6.28 | 6.11 |
